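1) Cells in 96-well plates. 2) Compound, 48 h, 5 concentrations. 3) Linear interpolation between surrounding doses. 4) Unreached endpoint = highest concentration. Here, GI50 denotes the concentration required for 50% inhibition of growth. TGI marks complete inhibition of growth.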
Tests used:
Assay in all cases: inhibition of tumour cell growth, NCI panel, 48 h
SNB-75 CNS = test system: SNB-75 CNS
UACC-62 melanoma = test system: UACC-62 melanoma
SW-620 colon = test system: SW-620 colon
SK-MEL-28 melanoma = test system: SK-MEL-28 melanoma
ACHN renal = test system: ACHN renal
OVCAR-3 ovarian = test system: OVCAR-3 ovarian
DLD-1 colon = test system: DLD-1 colon
A549 NSCLC = test system: A549 NSCLC
SK-MEL-5 melanoma = test system: SK-MEL-5 melanoma
DMS 273 small cell lung = test system: DMS 273 small cell lung
TK-10 renal = test system: TK-10 renal
MOLT-4 leukemia = test system: MOLT-4 leukemia
SK-OV-3 ovarian = test system: SK-OV-3 ovarian
HCT-116 colon = test system: HCT-116 colon
NCI-H23 lung = test system: NCI-H23 lung
UO-31 renal = test system: UO-31 renal
HT29 colon = test system: HT29 colon
HOP-62 NSCLC = test system: HOP-62 NSCLC
SNB-19 CNS = test system: SNB-19 CNS
HL-60(TB) leukemia = test system: HL-60(TB) leukemia
A498 renal = test system: A498 renal
SF-295 CNS = test system: SF-295 CNS
NCI-H460 lung = test system: NCI-H460 lung
K-562 leukemia = test system: K-562 leukemia
U251 CNS = test system: U251 CNS
SF-539 CNS = test system: SF-539 CNS
UACC-257 melanoma = test system: UACC-257 melanoma
OVCAR-4 ovarian = test system: OVCAR-4 ovarian
RPMI-8226 leukemia = test system: RPMI-8226 leukemia
MALME-3M melanoma = test system: MALME-3M melanoma
KM20L2 colon = test system: KM20L2 colon
CAKI-1 renal = test system: CAKI-1 renal
COLO 205 colon = test system: COLO 205 colon
M14 melanoma = test system: M14 melanoma
OVCAR-8 ovarian = test system: OVCAR-8 ovarian
NCI-H522 lung = test system: NCI-H522 lung
LOX IMVI melanoma = test system: LOX IMVI melanoma
CCRF-CEM leukemia = test system: CCRF-CEM leukemia
SN12C renal = test system: SN12C renal
SF-268 CNS = test system: SF-268 CNS
IGROV1 ovarian = test system: IGROV1 ovarian
KM12 colon = test system: KM12 colon
HOP-18 NSCLC = test system: HOP-18 NSCLC
HOP-92 NSCLC = test system: HOP-92 NSCLC
786-0 renal = test system: 786-0 renal
NCI-H226 lung = test system: NCI-H226 lung
DMS 114 small cell lung = test system: DMS 114 small cell lung
M19-MEL melanoma = test system: M19-MEL melanoma
RXF 393 renal = test system: RXF 393 renal
HCT-15 colon = test system: HCT-15 colon
OVCAR-5 ovarian = test system: OVCAR-5 ovarian
HCC-2998 colon = test system: HCC-2998 colon
LXFL 529 NSCLC = test system: LXFL 529 NSCLC
EKVX NSCLC = test system: EKVX NSCLC
SK-MEL-2 melanoma = test system: SK-MEL-2 melanoma
SNB-78 CNS = test system: SNB-78 CNS

## CC(=O)[CH-]C(=O)c1ccccc1.CC(=O)[CH-]C(=O)c1ccccc1.CC12CC3(C)CC(C)(C1)CC([O-])(C2)C3.CC[O-].[Ti+4]
SNB-75 CNS
  GI50: 14.3 µM
  TGI: 29.4 µM
UACC-62 melanoma
  GI50: 18.5 µM
  TGI: 45.2 µM
SW-620 colon
  GI50: 32.4 µM
  TGI: > 100 µM
SK-MEL-28 melanoma
  GI50: 17 µM
  TGI: 38.2 µM
ACHN renal
  GI50: 38.7 µM
  TGI: > 100 µM
OVCAR-3 ovarian
  GI50: 25.6 µM
  TGI: > 100 µM
DLD-1 colon
  GI50: 17 µM
  TGI: 78.6 µM
A549 NSCLC
  GI50: 29.5 µM
  TGI: > 100 µM
SK-MEL-5 melanoma
  GI50: 30.8 µM
  TGI: 64.4 µM
DMS 273 small cell lung
  GI50: 33.4 µM
  TGI: > 100 µM
TK-10 renal
  GI50: 26.7 µM
  TGI: 62.1 µM
MOLT-4 leukemia
  GI50: 28.9 µM
  TGI: > 100 µM
SK-OV-3 ovarian
  GI50: 23.1 µM
  TGI: > 100 µM
HCT-116 colon
  GI50: 18.8 µM
  TGI: 50.6 µM
NCI-H23 lung
  GI50: 18.1 µM
  TGI: 34.4 µM
UO-31 renal
  GI50: 16 µM
  TGI: 57.5 µM
HT29 colon
  GI50: 27 µM
  TGI: > 100 µM
HOP-62 NSCLC
  GI50: 22.3 µM
  TGI: 53.3 µM
SNB-19 CNS
  GI50: 20.9 µM
  TGI: 45.2 µM
HL-60(TB) leukemia
  GI50: 27.8 µM
  TGI: > 100 µM
A498 renal
  GI50: 21.3 µM
  TGI: 44.5 µM
SF-295 CNS
  GI50: 33.4 µM
  TGI: > 100 µM
NCI-H460 lung
  GI50: 16.8 µM
  TGI: 46 µM
K-562 leukemia
  GI50: 34.4 µM
  TGI: > 100 µM
U251 CNS
  GI50: 13.5 µM
  TGI: 27.9 µM
SF-539 CNS
  GI50: 17.5 µM
  TGI: 38.5 µM
UACC-257 melanoma
  GI50: 27.9 µM
  TGI: 76.1 µM
OVCAR-4 ovarian
  GI50: 17.9 µM
  TGI: 53.3 µM
RPMI-8226 leukemia
  GI50: 8.54 µM
  TGI: 95.5 µM
MALME-3M melanoma
  GI50: 17.5 µM
  TGI: 47 µM
KM20L2 colon
  GI50: 35.2 µM
  TGI: > 100 µM
CAKI-1 renal
  GI50: 42.9 µM
  TGI: > 100 µM
COLO 205 colon
  GI50: 19.4 µM
  TGI: 40.2 µM
M14 melanoma
  GI50: 16.9 µM
  TGI: 32.8 µM
OVCAR-8 ovarian
  GI50: 27.7 µM
  TGI: > 100 µM
NCI-H522 lung
  GI50: 21.2 µM
  TGI: 44.6 µM
LOX IMVI melanoma
  GI50: 13.2 µM
  TGI: 31.1 µM
CCRF-CEM leukemia
  GI50: 28.7 µM
  TGI: > 100 µM
SN12C renal
  GI50: 43.5 µM
  TGI: > 100 µM
SF-268 CNS
  GI50: 18.6 µM
  TGI: 45.4 µM
IGROV1 ovarian
  GI50: 40.9 µM
  TGI: > 100 µM
KM12 colon
  GI50: 18.3 µM
  TGI: 35.2 µM
HOP-18 NSCLC
  GI50: 37.4 µM
  TGI: > 100 µM
HOP-92 NSCLC
  GI50: 19.1 µM
  TGI: 55.3 µM
786-0 renal
  GI50: 29.3 µM
  TGI: > 100 µM

## C/C(CC(=O)Nc1ccc(NC(=O)/C(C)=N/NS(=O)(=O)c2ccc(C)cc2)cc1)=N\NS(=O)(=O)c1ccc(C)cc1
SNB-75 CNS
  TGI: > 100 µM
UACC-62 melanoma
  TGI: > 100 µM
NCI-H226 lung
  TGI: > 100 µM
SW-620 colon
  TGI: > 100 µM
SK-MEL-28 melanoma
  TGI: > 100 µM
ACHN renal
  TGI: > 100 µM
OVCAR-3 ovarian
  TGI: > 100 µM
DLD-1 colon
  TGI: > 100 µM
A549 NSCLC
  TGI: > 100 µM
SK-MEL-5 melanoma
  TGI: > 100 µM
TK-10 renal
  TGI: > 100 µM
MOLT-4 leukemia
  TGI: > 100 µM
SK-OV-3 ovarian
  TGI: > 100 µM
DMS 114 small cell lung
  TGI: > 100 µM
HCT-116 colon
  TGI: > 100 µM
NCI-H23 lung
  TGI: > 100 µM
UO-31 renal
  TGI: > 100 µM
HT29 colon
  TGI: > 100 µM
M19-MEL melanoma
  TGI: > 100 µM
HOP-62 NSCLC
  TGI: > 100 µM
HL-60(TB) leukemia
  TGI: > 100 µM
A498 renal
  TGI: > 100 µM
SF-295 CNS
  TGI: > 100 µM
NCI-H460 lung
  TGI: > 100 µM
K-562 leukemia
  TGI: > 100 µM
U251 CNS
  TGI: > 100 µM
RXF 393 renal
  TGI: > 100 µM
SF-539 CNS
  TGI: > 100 µM
UACC-257 melanoma
  TGI: > 100 µM
RPMI-8226 leukemia
  TGI: > 100 µM
MALME-3M melanoma
  TGI: > 100 µM
KM20L2 colon
  TGI: > 100 µM
HCT-15 colon
  TGI: > 100 µM
CAKI-1 renal
  TGI: > 100 µM
COLO 205 colon
  TGI: > 100 µM
M14 melanoma
  TGI: > 100 µM
OVCAR-8 ovarian
  TGI: > 100 µM
OVCAR-5 ovarian
  TGI: > 100 µM
LOX IMVI melanoma
  TGI: > 100 µM
SN12C renal
  TGI: > 100 µM
SF-268 CNS
  TGI: > 100 µM
HCC-2998 colon
  TGI: > 100 µM
LXFL 529 NSCLC
  TGI: > 100 µM
EKVX NSCLC
  TGI: > 100 µM
IGROV1 ovarian
  TGI: > 100 µM
SK-MEL-2 melanoma
  TGI: > 100 µM
KM12 colon
  TGI: > 100 µM
HOP-92 NSCLC
  TGI: > 100 µM
SNB-78 CNS
  TGI: > 100 µM
786-0 renal
  TGI: > 100 µM
